Data set [1] has as its system LC3-II in KP4 cells. As to the kind of experiment: Immunoblot of LC3-I and LC3-II protein levels (autophagy). The data set is classed as cell-based. The following applies: KP4, 24 h; for LC3-II level: relative to DMSO, metformin 200 µM and 2 mM, 7 200 µM, 6 100 and 200 µM. Here is the method:
Immunoblot analysis: For the protein degradation assay, cells were seeded at a density of 1 × 10^5 cells per well in 6-well plates overnight, and then treated with vehicle and compounds for 24 h. The culture medium was removed. […] Equal amounts of protein were separated via sodium dodecyl sulfate-polyacrylamide gel electrophoresis (SDS-PAGE) and transferred to nitrocellulose membranes. […] Membranes were washed again with TBST and incubated with the primary antibody overnight at 4 °C. After being washed with TBST three times, the membranes were incubated with the secondary antibody for 1 h. After being washed with TBST three times, membranes were visualized using chemiluminescence using a Western Lightning™ Plus Chemiluminescence Reagent.
In general terms: In western blotting, separated proteins are transferred to a membrane and probed.

The test system of data set [2] is OXPHOS proteins (vATP5A, UQCR2, SDHB, COXII, NDUFB8) in KP4 cells. As to the kind of experiment: Immunoblot of OXPHOS mitochondrial respiratory chain proteins. The data set is classed as cell-based. The following applies: KP4, 24 h of treatment. The procedure: Immunoblot analysis: For the protein degradation assay, cells were seeded at a density of 1 × 10^5 cells per well in 6-well plates overnight, and then treated with vehicle and compounds for 24 h. The culture medium was removed. Cells were washed twice with cold PBS and lysed with LAEMMLI 2X (BIO-RAD, Hercules, CA, USA, 4% SDS, 20% glycerol, 0.125 M Tris-HCl (pH 6.8)). Equal amounts of protein were separated via sodium dodecyl sulfate-polyacrylamide gel electrophoresis (SDS-PAGE) and transferred to nitrocellulose membranes. […] Membranes were washed again with TBST and incubated with the primary antibody overnight at 4 °C. After being washed with TBST three times, the membranes were incubated with the secondary antibody for 1 h. After being washed with TBST three times, membranes were visualized using chemiluminescence using a Western Lightning™ Plus Chemiluminescence Reagent.

The subject of data set [3] is hTERT-HPNE (immortalized pancreatic cells, healthy cells). As to the kind of experiment: Cell proliferation assay (crystal violet), EC50 determination. The data set is classed as cell-based, Human. Conditions: for EC50: Homo sapiens, 72 h of treatment, mean ± SD; for effect on healthy cell line hTERT-HPNE (toxicity): at the concentrations examined. The procedure: (§1) Materials and methods for in vitro experiments: Absorbance measurements for EC50 determination were performed using a SpectraMax 190 microplates reader from Molecular Devices. […] Statistical analyses were also performed using the PRISM software, using a one-way ANOVA test. Protein concentrations were determined using a Nanodrop 2000c spectrophotometer from Thermo Scientific (Waltham, MA, USA). A ChemiDoc MP Imaging System from BIO-RAD (Hercules, CA, USA) was used for imaging and analyzing Western blots. Resulting data were treated with Image Lab software (version 6.1).
Cell Lines: Human pancreatic normal epithelial (HPNE hTERT) cells were obtained from Dr. M. Ouellette (University of Nebraska Medical Center). IMR90 was obtained from Coriell Institute (I90-79). PANC1 was obtained from ATCC and KP4 from the Massachusetts General Hospital Center for Molecular Therapeutics (CMT), courtesy of Dr. Bardeesy. […] All cell lines tested negative for mycoplasma contamination. No unpublished de novo cell lines were used.
(§2) Cells were seeded at a density of 1 × 10^3 cells per well for KP4 and PANC1, 4 × 10^3 for IMR90, and 2 × 10^3 for hTERT-HPNE in 96 well plates one day prior to treatments with vehicle and compounds for 72 h. The culture medium was removed. Cells were washed twice with cold PBS, and 1% glutaraldehyde was added to the wells for fixation for 10 min. Cells were then washed with water, stained with 0.2% crystal violet for 30 min at room temperature, washed with water, and then dried. The adherent crystal violet was solubilized in 10% acetic acid and the absorbance was read at a wavelength of 590 nm for the calculation of the cell viability.

For data set [4], the system named is KP4 pancreatic cancer cells. Described as above. The data set is classed as cell-based. The following applies: for impact on the growth of cancer cells: KP4 and PANC1. The procedure:
as §1, §2

Data set [5] has as its system mitochondria (TOMM20) in KP4 cells. As to the kind of experiment: Immunofluorescence assay of TOMM20 (mitochondrial morphology). The data set is classed as cell-based. Conditions: KP4, 24 h; compound 6 200 µM, metformin 2 mM. Here is the method:
Immunofluorescence assay: KP4 cells were seeded at a density of 8 × 10^4 cells per well on top of microscope cover glasses in 6-well plates overnight. They were then treated with vehicle or the studied compounds for 24 h. The culture medium was removed, and cells were washed three times with cold PBS. A solution of 4% paraformaldehyde was added into the wells for fixation for 10 min. Cells were washed again three times with 0.1 M glycine in PBS, then incubated with a solution of 3% BSA and 0.2% […] in PBS for 5 min at room temperature. Cells were washed again three times with a solution of 3% BSA in PBS, then incubated overnight with the primary antibody TOMM20 (1:100 in PBS, pH 7.4, 3% BSA). Cells were washed three times with 3% BSA in PBS and incubated for 1 h with the secondary antibody AF488 (1:2000 in PBS, pH 7.4, 3% BSA). Cells were finally washed three times with 3% BSA in PBS. A drop of mounting medium for fluorescence with DAPI was used to adhere cover glasses to microscope slides.
Antibodies: • I. Tom20 Antibody (F-10) #sc-17764 (Santa Cruz Biotechnology, Dallas, TX, USA): 1:100, 3% BSA in 1X PBS; • II. Goat anti-Mouse IgG (H + L) Highly Cross-Adsorbed Secondary Antibody, Alexa Fluor™ 488 #A-11029 (ThermoFisher/Invitrogen, Waltham, MA, USA): 1:2000, 3% BSA in 1X PBS.

Data set [6] relates to IMR90 (lung fibroblasts, healthy cells). As to the kind of experiment: Cell proliferation assay (crystal violet), EC50 determination. The data set is classed as cell-based. Conditions: for EC50: Homo sapiens, IMR-90, 72 h of treatment, mean ± SD; for effect on healthy cell line IMR90 (toxicity): at the concentrations examined. Here is the method: (§3) Materials and methods for in vitro experiments: Absorbance measurements for EC50 determination were performed using a SpectraMax 190 microplates reader from Molecular Devices. Resulting data were analyzed with PRISM software (version 10.3.0) using curve fitting with non-linear regression (log(inhibitor) vs. response—variable slope (four parameters)). Statistical analyses were also performed using the PRISM software, using a one-way ANOVA test. Protein concentrations were determined using a Nanodrop 2000c spectrophotometer from Thermo Scientific (Waltham, MA, USA). A ChemiDoc MP Imaging System from BIO-RAD (Hercules, CA, USA) was used for imaging and analyzing Western blots. Resulting data were treated with Image Lab software (version 6.1).
as §2

Data set [7] deals with PANC1 pancreatic cancer cells. The description is as above. Format: cell-based. The following applies: Homo sapiens, PANC-1. Here is the method:
as §3, §2

The test system of data set [8] is mitochondria in KP4 cells. As to the kind of experiment: Cell fluorescence assay: mitochondrial morphology by MitoTracker Deep Red FM confocal microscopy. Format: cell-based. The following applies: for mitochondrial morphology (MTDR): metformin 2 mM, 7 1 mM, 6 50-200 µM. Here is the method: Cell fluorescence assay: KP4 cells were seeded at a density of 8 × 10^4 cells per well on top of microscope cover glasses in 6-well plates overnight. They were then treated with vehicle or the studied compounds for 24 h. The culture medium was refreshed with a solution of the MitoTracker® Deep Red FM (100 nM in DMEM). After 30 min at 37 °C, the medium was removed. Cells were washed twice with PBS and a solution of 4% paraformaldehyde was added into the wells for fixation for 10 min. Cells were washed again three times with 0.1 M glycine in PBS. A drop of mounting medium for fluorescence with DAPI was used to adhere cover glasses to microscope slides.

Where [9] appears, read: Homo sapiens, PANC-1, KP4 and PANC1, text summary, read-out: median effective concentration / concentration of toxic activity on pancreatic cancer cell lines.
[10] abbreviates: Pancreatic cancer cell, 72 h of treatment, mean ± SD, read-out: EC50 KP4.
[11] abbreviates: Pancreatic cancer cell, in Figure 2, read-out: EC50 KP4 (Figure 2).
Where [12] appears, read: 72 h of treatment, mean ± SD, read-out: EC50 PANC1.

Read-outs that look alike come from different tables or passages of the source. A value given as a limit tells only on which side of the number the result lay.

On to `CCN(CC)CCCC(C)Nc1ccnc2cc(Cl)ccc12` (stereo not drawn) [chloroquine, reference compound], for which the LC3-II level entry in data set [1] was “increase in LC3-II levels”.

Consider `CN(C)C(=N)N=C(N)N` [Met., Metformin, reference compound], for which the “levels of OXPHOS mitochondrial respiratory chain proteins” value (“levels” for short) in data set [2] is on record as “did not appear to affect the levels”. Also, the EC50 is more than 20000 µM in data set [3]; 1000 to 4000 µM in data set [4] (setting [9]); 1490 ± 550 µM in data set [4] (setting [10]); 2210 µM in data set [4] (setting [11]); more than 20000 µM in data set [6]; 3130 ± 1410 µM in data set [7] (setting [12]). For the same compound, the “mitochondrial morphology (TOMM20 immunofluorescence)” value in data set [5] is “mild fragmentation of the network”. Moreover, the “effect on healthy cell line IMR90 (toxicity)” value in data set [6] is on record as “no noticeable effect”.

On to `CCCCCCNC(=O)C(CSc1nc2c(=O)[nH]c(N)nc2n1Cc1ccc(F)cc1)NC(C)=O` (stereo not drawn) [compound 7], for which the “levels” value in data set [2] was “no effect on OXPHOS proteins”. For the same compound, the EC50 is 110 ± 20 µM in data set [3], more than 1000 µM in data set [4] (setting [10]), more than 1000 µM in data set [6] and more than 1000 µM in data set [7] (setting [12]). The “effect on healthy cell line hTERT-HPNE (toxicity)” value in data set [3] was “appeared to affect”. The “impact on the growth of cancer cells” value in data set [4] was “no discernible impact”. In data set [6], the “effect on healthy cell line IMR90 (toxicity)” value is given as “without exhibiting toxicity”. Also, the “mitochondrial morphology (MTDR)” value in data set [8] (KP4, 24 h) is listed as “predominantly formed a filamentous network”. Further, the LC3-II level result in data set [1] is on record as “elevate LC3-II levels”.

Take `CC(=O)NC(CSc1nc2c(=O)[nH]c(N)nc2n1Cc1ccc(F)cc1)C(=O)NCCCCCCNC(=N)NC(=N)N.O=CO` (stereo not drawn) [compound 6]: the “levels” value in data set [2] is “decrease in complex I and complex IV mitochondrial respiratory chain proteins”. Moreover, the EC50 is more than 1000 µM in data set [3]; approximately 100 µM in data set [4] (setting [9]); 100 ± 30 µM in data set [4] (setting [10]); 74 µM in data set [4] (setting [11]); more than 1000 µM in data set [6]; 150 ± 30 µM in data set [7] (setting [12]). In addition, the EC50 in data set [7] (in Figure 2, read-out: EC50 PANC1 (Figure 2)) is 103 µM. In addition, in data set [3], the “effect on healthy cell line hTERT-HPNE (toxicity)” value was “no adverse impact”. The “selectivity index (SI)” value in data set [4] (cancer cells over healthy cells, 72 h of treatment) was more than 10. Besides, the “mitochondrial morphology (TOMM20 immunofluorescence)” value in data set [5] was “majority of cells assumed a punctate appearance”. Moreover, the “effect on healthy cell line IMR90 (toxicity)” value in data set [6] is reported as “no adverse impact”. In data set [8] (KP4, 100 µM, 24 h of treatment, MTDR), the “cells displaying a fragmented or punctate mitochondrial network” value was “more than 50%”. Further, the “cells maintaining a filamentous network” value in data set [8] (KP4, 200 µM (doubling of 100 µM), 24 h, MTDR) is less than 10%. For the same compound, in data set [8] (KP4, 24 h), the MTDR fluorescence intensity result is given as “decrease in fluorescence intensity”. The “mitochondrial morphology (MTDR)” value in data set [8] (KP4, 24 h) is “punctate configuration”. Further, the “effect on lysosomal degradation of LC3B (LC3-II with and without chloroquine)” value in data set [1] (in the presence of chloroquine) was “does not affect the degradation of LC3B”. Further, the LC3-II level result in data set [1] is given as “mild increase in LC3-II levels”.

For `CC(=O)N[C@@H](CSc1nc2c(=O)[nH]c(N)nc2n1Cc1ccc(F)cc1)C(=O)O` [compound 5], the EC50 in data set [3] was 3510 ± 1450 µM; in data set [4] (setting [10]), more than 5000 µM; in data set [6] it was more than 5000 µM; in data set [7] (setting [12]), more than 5000 µM. Also, the “effect on healthy cell line hTERT-HPNE (toxicity)” value in data set [3] was “appeared to affect”. The “impact on the growth of cancer cells” value in data set [4] is reported as “no discernible impact”. Also, the “effect on healthy cell line IMR90 (toxicity)” value in data set [6] is “without exhibiting toxicity”.

Values taken from PMC11357661, “Gaining Insight into Mitochondrial Targeting: AUTAC-Biguanide as an Anticancer Agent” (Molecules, 2024).
